Source: ChEMBL document CHEMBL1201862, “PubChem BioAssay data set” (2004)
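Interpolation was linear, between the two tested concentrations surrounding the appropriate level; five concentrations were tested over 48 hours in 96-well plates. Here, GI50 denotes the concentration required for 50% inhibition of growth.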 The source made the active and inactive calls. Cut-off read from the data, not from the text of the source: active = GI50 up to about 1.1 µM and inactive = higher.

What was measured:
Test in all cases: DTP human tumour cell line panel, 48 h
786-0 = tested on: 786-0
A498 = tested on: A498
A549 = tested on: A549
ACHN = tested on: ACHN
CAKI-1 = tested on: CAKI-1
CCRF-CEM = tested on: CCRF-CEM
COLO 205 = tested on: COLO 205
DLD-1 = tested on: DLD-1
DMS-114 = tested on: DMS-114
DMS-273 = tested on: DMS-273
EKVX = tested on: EKVX
HCC 2998 = tested on: HCC 2998
HCT-116 = tested on: HCT-116
HCT-15 = tested on: HCT-15
HL-60 = tested on: HL-60
HOP-18 = tested on: HOP-18
HOP-62 = tested on: HOP-62
HOP-92 = tested on: HOP-92
IGROV-1 = tested on: IGROV-1
K562 = tested on: K562
KM-20L2 = tested on: KM-20L2
LOX IMVI = tested on: LOX IMVI
LXFL 529 = tested on: LXFL 529
M14 = tested on: M14
M19-MEL = tested on: M19-MEL
MOLT-4 = tested on: MOLT-4
Malme-3M = tested on: Malme-3M
NCI-H23 = tested on: NCI-H23
NCI-H460 = tested on: NCI-H460
NCI-H522 = tested on: NCI-H522
OVCAR-3 = tested on: OVCAR-3
OVCAR-4 = tested on: OVCAR-4
OVCAR-5 = tested on: OVCAR-5
OVCAR-8 = tested on: OVCAR-8
RPMI-8226 = tested on: RPMI-8226
RXF 393 = tested on: RXF 393
SF-268 = tested on: SF-268
SF-295 = tested on: SF-295
SK-MEL-28 = tested on: SK-MEL-28
SK-MEL-2 = tested on: SK-MEL-2
SK-MEL-5 = tested on: SK-MEL-5
SK-OV-3 = tested on: SK-OV-3
SN12C = tested on: SN12C
SNB-19 = tested on: SNB-19
SNB-75 = tested on: SNB-75
SR = tested on: SR
SW-620 = tested on: SW-620
TK-10 = tested on: TK-10
U-251 = tested on: U-251
UACC-62 = tested on: UACC-62
UO-31 = tested on: UO-31
XF498 = tested on: XF498
HT-29 = tested on: HT-29
KM12 = tested on: KM12
NCI-H226 = tested on: NCI-H226
SF-539 = tested on: SF-539
UACC-257 = tested on: UACC-257
SNB-78 = tested on: SNB-78

Q: What does the source list for `CCOC(=O)c1cc2c(OCc3ccccc3)c(OC)cc3c2c(n1)N(c1ccc(OC)cc1)C(C)C3` (configuration not stated)?
A: GI50 (786-0): > 50 µM (inactive); GI50 (A498): > 50 µM (inactive); GI50 (A549): > 50 µM (inactive); GI50 (ACHN): > 50 µM (inactive); GI50 (CAKI-1): 23.2 µM (inactive); GI50 (CCRF-CEM): > 50 µM (inactive); GI50 (COLO 205): > 50 µM (inactive); GI50 (DLD-1): > 50 µM (inactive); GI50 (DMS-114): 38.3 µM (inactive); GI50 (DMS-273): > 50 µM (inactive); GI50 (EKVX): > 50 µM (inactive); GI50 (HCC 2998): 44.4 µM (inactive); GI50 (HCT-116): > 50 µM (inactive); GI50 (HCT-15): > 50 µM; GI50 (HL-60): 45.6 µM (inactive); GI50 (HOP-18): > 50 µM (inactive); GI50 (HOP-62): > 50 µM (inactive); GI50 (HOP-92): 8.91 µM (inactive); GI50 (IGROV-1): > 50 µM (inactive); GI50 (K562): > 50 µM (inactive); GI50 (KM-20L2): 2.47 µM (inactive); GI50 (LOX IMVI): > 50 µM (inactive); GI50 (LXFL 529): 39.4 µM (inactive); GI50 (M14): > 50 µM (inactive); GI50 (M19-MEL): > 50 µM (inactive); GI50 (MOLT-4): > 50 µM (inactive); GI50 (Malme-3M): > 50 µM (inactive); GI50 (NCI-H23): > 50 µM (inactive); GI50 (NCI-H460): 49.9 µM (inactive); GI50 (NCI-H522): 25.2 µM (inactive); GI50 (OVCAR-3): 23.2 µM (inactive); GI50 (OVCAR-4): 10.4 µM (inactive); GI50 (OVCAR-5): > 50 µM (inactive); GI50 (OVCAR-8): > 50 µM (inactive); GI50 (RPMI-8226): 2.69 µM (inactive); GI50 (RXF 393): 33.6 µM (inactive); GI50 (SF-268): > 50 µM (inactive); GI50 (SF-295): > 50 µM (inactive); GI50 (SK-MEL-28): > 50 µM (inactive); GI50 (SK-MEL-2): > 50 µM (inactive); GI50 (SK-MEL-5): > 50 µM (inactive); GI50 (SK-OV-3): > 50 µM (inactive); GI50 (SN12C): > 50 µM (inactive); GI50 (SNB-19): > 50 µM (inactive); GI50 (SNB-75): > 50 µM (inactive); GI50 (SR): > 50 µM (inactive); GI50 (SW-620): > 50 µM (inactive); GI50 (TK-10): > 50 µM (inactive); GI50 (U-251): 28.6 µM (inactive); GI50 (UACC-62): 49.3 µM (inactive); GI50 (UO-31): > 50 µM (inactive); GI50 (XF498): > 50 µM (inactive)

Q: For `O=c1c2ccccc2nc(-c2ccccc2)n1NC(=S)Nc1ccc(Cl)cc1[N+](=O)[O-]`, which GI50 (786-0) is on record?
A: > 100 µM (inactive)

Q: And the GI50 (A498)?
A: 94 µM (inactive)

Q: What about the GI50 (A549) of the same compound?
A: 67.3 µM (inactive)

Q: What about the GI50 (ACHN) of the same compound?
A: > 100 µM (inactive)

Q: What about the GI50 (CAKI-1) of the same compound?
A: > 100 µM (inactive)

Q: And the GI50 (CCRF-CEM)?
A: 62.4 µM (inactive)

Q: And the GI50 (COLO 205)?
A: 51.5 µM (inactive)

Q: What about the GI50 (DLD-1) of the same compound?
A: 87.9 µM (inactive)

Q: And the GI50 (DMS-114)?
A: 31.2 µM (inactive)

Q: And the GI50 (DMS-273)?
A: 49.8 µM (inactive)

Q: What about the GI50 (HCT-116) of the same compound?
A: 54.2 µM (inactive)

Q: What about the GI50 (HCT-15) of the same compound?
A: 35 µM

Q: What about the GI50 (HL-60) of the same compound?
A: 35.3 µM (inactive)

Q: What about the GI50 (HOP-18) of the same compound?
A: 27.4 µM (inactive)

Q: And the GI50 (HOP-62)?
A: 77.3 µM (inactive)

Q: And the GI50 (HOP-92)?
A: 55.1 µM (inactive)

Q: And the GI50 (HT-29)?
A: 69.3 µM (inactive)

Q: And the GI50 (IGROV-1)?
A: > 100 µM (inactive)

Q: What about the GI50 (K562) of the same compound?
A: 50.9 µM (inactive)

Q: What about the GI50 (KM12) of the same compound?
A: 66.4 µM (inactive)

Q: And the GI50 (LOX IMVI)?
A: 56.8 µM (inactive)

Q: And the GI50 (LXFL 529)?
A: > 100 µM (inactive)

Q: What about the GI50 (M14) of the same compound?
A: > 100 µM (inactive)

Q: What about the GI50 (M19-MEL) of the same compound?
A: 54.1 µM (inactive)

Q: What about the GI50 (MOLT-4) of the same compound?
A: 73.3 µM (inactive)

Q: What about the GI50 (Malme-3M) of the same compound?
A: > 100 µM (inactive)

Q: What about the GI50 (NCI-H226) of the same compound?
A: 20.3 µM (inactive)

Q: What about the GI50 (NCI-H23) of the same compound?
A: > 100 µM (inactive)

Q: And the GI50 (NCI-H460)?
A: > 100 µM (inactive)

Q: What about the GI50 (NCI-H522) of the same compound?
A: 42.7 µM (inactive)

Q: What about the GI50 (OVCAR-4) of the same compound?
A: 88.5 µM (inactive)

Q: And the GI50 (OVCAR-5)?
A: > 100 µM (inactive)

Q: What about the GI50 (OVCAR-8) of the same compound?
A: > 100 µM (inactive)

Q: What about the GI50 (RPMI-8226) of the same compound?
A: 80.5 µM (inactive)

Q: What about the GI50 (RXF 393) of the same compound?
A: 22.9 µM (inactive)

Q: And the GI50 (SF-268)?
A: > 100 µM (inactive)

Q: And the GI50 (SF-295)?
A: 92.3 µM (inactive)

Q: What about the GI50 (SF-539) of the same compound?
A: 41.1 µM (inactive)

Q: And the GI50 (SK-MEL-28)?
A: 21.7 µM (inactive)

Q: And the GI50 (SK-MEL-2)?
A: > 100 µM (inactive)

Q: What about the GI50 (SK-MEL-5) of the same compound?
A: 58.7 µM (inactive)

Q: What about the GI50 (SK-OV-3) of the same compound?
A: > 100 µM (inactive)

Q: What about the GI50 (SN12C) of the same compound?
A: 65 µM (inactive)

Q: What about the GI50 (SNB-75) of the same compound?
A: 29.2 µM (inactive)

Q: And the GI50 (SR)?
A: 33.3 µM (inactive)

Q: What about the GI50 (SW-620) of the same compound?
A: > 100 µM (inactive)

Q: And the GI50 (TK-10)?
A: > 100 µM (inactive)

Q: And the GI50 (U-251)?
A: 80.4 µM (inactive)

Q: What about the GI50 (UACC-257) of the same compound?
A: 88.3 µM (inactive)

Q: What about the GI50 (UACC-62) of the same compound?
A: 39.7 µM (inactive)

Q: What about the GI50 (UO-31) of the same compound?
A: 42.2 µM (inactive)

Q: What does the source list for `NC(CCSCC(F)(F)F)C(=O)O` (configuration not stated)?
A: GI50 (786-0): > 100 µM (inactive); GI50 (A498): > 100 µM (inactive); GI50 (A549): > 100 µM (inactive); GI50 (ACHN): > 100 µM (inactive); GI50 (CAKI-1): > 100 µM (inactive); GI50 (CCRF-CEM): > 100 µM (inactive); GI50 (COLO 205): > 100 µM (inactive); GI50 (DLD-1): > 100 µM (inactive); GI50 (DMS-114): > 100 µM (inactive); GI50 (DMS-273): > 100 µM (inactive); GI50 (EKVX): > 100 µM (inactive); GI50 (HCC 2998): > 100 µM (inactive); GI50 (HCT-116): > 100 µM (inactive); GI50 (HCT-15): > 100 µM; GI50 (HL-60): > 100 µM (inactive); GI50 (HOP-18): > 100 µM (inactive); GI50 (HOP-62): > 100 µM (inactive); GI50 (HOP-92): > 100 µM (inactive); GI50 (HT-29): > 100 µM (inactive); GI50 (IGROV-1): > 100 µM (inactive); GI50 (K562): > 100 µM (inactive); GI50 (KM-20L2): > 100 µM (inactive); GI50 (KM12): > 100 µM (inactive); GI50 (LOX IMVI): > 100 µM (inactive); GI50 (LXFL 529): > 100 µM (inactive); GI50 (M14): > 100 µM (inactive); GI50 (M19-MEL): > 100 µM (inactive); GI50 (MOLT-4): > 100 µM (inactive); GI50 (Malme-3M): > 100 µM (inactive); GI50 (NCI-H226): > 100 µM (inactive); GI50 (NCI-H23): > 100 µM (inactive); GI50 (NCI-H460): > 100 µM (inactive); GI50 (NCI-H522): > 100 µM (inactive); GI50 (OVCAR-3): > 100 µM (inactive); GI50 (OVCAR-4): > 100 µM (inactive); GI50 (OVCAR-5): > 100 µM (inactive); GI50 (OVCAR-8): > 100 µM (inactive); GI50 (RXF 393): > 100 µM (inactive); GI50 (SF-268): > 100 µM (inactive); GI50 (SF-295): > 100 µM (inactive); GI50 (SF-539): > 100 µM (inactive); GI50 (SK-MEL-28): > 100 µM (inactive); GI50 (SK-MEL-5): > 100 µM (inactive); GI50 (SN12C): > 100 µM (inactive); GI50 (SNB-19): > 100 µM (inactive); GI50 (SNB-75): > 100 µM (inactive); GI50 (SNB-78): > 100 µM (inactive); GI50 (SR): > 100 µM (inactive); GI50 (SW-620): > 100 µM (inactive); GI50 (TK-10): > 100 µM (inactive); GI50 (U-251): > 100 µM (inactive); GI50 (UACC-257): > 100 µM (inactive); GI50 (UACC-62): > 100 µM (inactive); GI50 (UO-31): > 100 µM (inactive)
